# Results taken from PubChem BioAssay AID1645864 (Buhrlage Lab, Dana-Farber Cancer Institute and Novartis …, 2021).
# Active and inactive are the calls of the source.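 How the source made its calls: active means maximal inhibition of USP17 at or above 30% in the confirmation dose-response, a value not among the printed readouts; inactive means the rest.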
# Biological target: Ubiquitin carboxyl-terminal hydrolase 17-like protein 5 (Homo sapiens) (UniProt A8MUK1)
# Test: ubiquitin-specific protease 17 inhibitors, concentration series, biochemical, verification of primary actives (AID 1645864)
# Conditions: purified USP17, ubiquitin-rhodamine cleavage fluorescence, 3 h
# Chain of Ubiquitin carboxyl-terminal hydrolase 17-like protein 5 (Homo sapiens) (A8MUK1 whole entry, looked up): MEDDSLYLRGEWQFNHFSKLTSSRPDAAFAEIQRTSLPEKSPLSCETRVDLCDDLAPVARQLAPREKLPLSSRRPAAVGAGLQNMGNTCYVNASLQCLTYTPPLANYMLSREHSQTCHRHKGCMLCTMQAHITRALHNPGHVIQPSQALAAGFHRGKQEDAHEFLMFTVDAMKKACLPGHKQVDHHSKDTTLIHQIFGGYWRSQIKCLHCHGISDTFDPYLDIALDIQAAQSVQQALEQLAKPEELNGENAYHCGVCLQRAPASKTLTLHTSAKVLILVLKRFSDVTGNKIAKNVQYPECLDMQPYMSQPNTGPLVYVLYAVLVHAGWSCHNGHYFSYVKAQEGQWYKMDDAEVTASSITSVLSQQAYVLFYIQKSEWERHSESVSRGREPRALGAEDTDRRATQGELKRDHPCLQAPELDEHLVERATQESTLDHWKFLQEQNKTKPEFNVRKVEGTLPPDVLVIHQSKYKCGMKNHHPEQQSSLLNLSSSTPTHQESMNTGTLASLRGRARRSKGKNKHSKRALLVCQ
row,Structure (SMILES),IC50
1,COc1cccc(NC(=O)CSc2nnc(-c3cc4cccc(OC)c4o3)n2C)c1,11.9 µM
2,O=S(=O)(c1ccccc1)N1CCN2Cc3ccccc3N(Cc3ccccc3)CC2C1 (stereo not given),> 50 µM (inactive)
3,CC(C)(C)c1cc(CCC(=O)Nc2c3c(nc4c2CCC4)CCCC3)cc(C(C)(C)C)c1O,> 50 µM (inactive)
4,O=C1c2c(O)c(Cl)cc3c2[C@@]2(Oc4cc(Cl)c(O)c5c4[C@]3(O2)[C@@H]2O[C@@H]2C5=O)[C@@H]2O[C@H]12,0.411 µM
5,CN(C)c1ccc(C2CC(c3c(O)n(C)c(=O)[nH]c3=O)=Nc3ccccc3S2)cc1 (stereo not given),2.37 µM
6,N#Cc1ccc(NC(=O)COC(=O)c2ccc3ccccc3n2)cc1,> 50 µM (inactive)
7,Cc1ccc(NC(=O)c2ccc3nn(CC(=O)Nc4ccc(F)cc4F)c(=O)n3c2)cc1,2.79 µM
8,CC1CCc2c(sc3ncnc(NC4CCN(CC(N)=O)CC4)c23)C1 (stereo not given),> 50 µM (inactive)
9,COc1c(Cl)ccc2c(=O)c3c(O)c4c5c(c3oc12)OCO[C@H]5[C@@H](OC)c1cc2c(c(O)c1-4)C(=O)N(C)[C@H](OC)[C@@H]2O,> 50 µM (inactive)
10,c1coc(CNc2nc(Nc3cccc4ccccc34)nc3ccccc23)c1,> 50 µM (inactive)
11,N#Cc1cccc(S(=O)(=O)N2CCc3nc4ccccc4n3CC2)c1,19.5 µM
12,O=S(=O)(c1ccc2c(c1)OCCO2)N(Cc1ccccc1)Cc1nnc(-c2ccccc2)o1,> 50 µM (inactive)
13,O=C(CC(C(=O)Nc1ccc2c(c1)OCO2)C(=O)c1ccccc1)Nc1ccc(Cl)cc1F (stereo not given),11.4 µM
14,O=C(Nc1cccc2ccccc12)C1CCCN(S(=O)(=O)Cc2ccccc2)C1 (stereo not given),8.53 µM
15,O=C1C/C(=C\c2cccc(Cl)c2)Cc2ccccc21,> 50 µM (inactive)
16,CCOC(=O)c1sc2nc(CC(=O)OC)nc(NCc3ccco3)c2c1C,> 50 µM (inactive)
17,Cc1ccc2c(C)nc(Nc3ncc4c(n3)CC(c3ccco3)CC4=O)nc2c1 (stereo not given),< 0.05 µM
18,COc1c(O)cc(CC(=O)O)c(C(C)=O)c1O,11.1 µM
19,O=C1NC(=O)/C(=C/c2ccc(OC(=O)c3ccc(Cl)cc3Cl)cc2)N1,13.7 µM
20,O=C1CN(C(=O)COC(=O)CCCN2C(=O)c3cccc4cccc(c34)C2=O)c2ccccc2N1,49.3 µM
21,CO[C@H]1[C@@H](O)[C@H](C)O[C@H](O[C@H]2[C@H](Oc3cccc4c(O)c5c(=O)oc6ccc(C)c7c(=O)oc(c34)c5c67)O[C@H](C)[C@H](O)[C@@H]2O)[C@@H]1O,> 50 µM (inactive)
22,CCOc1ccc(CCNC(=O)CCC(=O)Nc2ccc3nc(N4CCN(C)CC4)cc(C)c3c2)cc1OCC,> 50 µM (inactive)
23,O=C(Nc1cc(-c2cccnc2)no1)c1ccc(F)c(F)c1,19.3 µM
24,COc1ccc(NC(=O)Cn2cc(C(=O)c3ccc(C)cc3)c(=O)c3ccccc32)cc1,1.98 µM

row,Structure (SMILES),IC50
1,CC1CCCN(S(=O)(=O)c2cc3cc(F)ccc3oc2=O)C1 (stereo not given),31.1 µM
2,Cc1[nH]nc(NC(=O)C2COc3ccccc3O2)c1-c1ccccc1 (stereo not given),34.7 µM
3,CN(C)S(=O)(=O)c1ccc(N2CCCC2)c(C(=O)Nc2ccc(-c3cn4ccsc4n3)cc2)c1,> 50 µM (inactive)
4,Cc1cccc(C)c1NC(=O)Cn1c(=O)n(CCCCC(=O)NCc2ccc3c(c2)OCO3)c(=O)c2ccccc21,2.23 µM
5,Cc1ccc2c(c1)[C@]1(C(=O)N2)[C@@H](C(=O)c2ccccc2)[C@]2(C(=O)Nc3ccccc32)[C@@H]2CCCN21,32 µM
6,Cc1nc2cccnc2n1C1CCN(C(=O)c2cc3cc(Cl)ccc3[nH]2)C1 (stereo not given),> 50 µM (inactive)
7,CCOc1ccc(NC(=O)Cn2cnc(S(=O)(=O)N3CCc4ccccc43)c2)cc1,23.6 µM
8,CCCNc1cc(-c2ccccc2)nc2nc(-c3cccnc3)nn12,> 50 µM (inactive)
9,Cc1cc(C(F)(F)F)n(-c2ccc(NC(=O)Nc3cccc(C(F)(F)F)c3)cc2)n1,15.4 µM
10,Cc1ccc([N+](=O)[O-])cc1S(=O)(=O)Nc1cc2sc(=O)oc2c2ccccc12,3.44 µM
11,CCOC(=O)c1ccc(NC(=O)COc2cccc3c2CCN(CC)C3=O)cc1,> 50 µM (inactive)
12,COc1ccc(S(=O)(=O)N2CCN3Cc4ccccc4N(C)CC3C2)cc1 (stereo not given),> 50 µM (inactive)
13,NS(=O)(=O)c1ccc(NC(=O)Cn2cnc3cc([N+](=O)[O-])ccc3c2=O)cc1,18 µM
14,O=c1cc(CNc2ccc(Br)cc2)nc2nc(-c3ccccc3)[nH]n12,> 50 µM (inactive)
15,O=C(COC(=O)c1n[nH]c2ccccc12)Nc1ccc(N2CCCCC2)cc1,25.9 µM
16,O=C(COC(=O)c1cc2c(s1)CCC2)c1ccc2[nH]c(=O)[nH]c2c1,15.7 µM
17,O=C(COc1ccc2ccccc2c1)Nc1cccc2ccccc12,15.8 µM
18,COc1ccc(NC(=O)c2ccnc(Nc3ccc(OC)cc3)c2)cc1,42.4 µM
19,CCC1=C(c2ccc(C)cc2)S(=O)(=O)NC1=NCC(=O)NCc1ccccc1F,35.3 µM
20,CC[C@H](C)[C@H](NC(=O)[C@H]([C@@H](C)CC)N(C)C(C)=O)C(=O)N[C@H](C(=O)N[C@@H](CC(C)C)C(=O)C1(C)CO1)[C@@H](C)O (stereo not given in full),> 50 µM (inactive)
21,COC(=O)c1ccccc1NC(=O)CSc1nnc(CNc2ccc(F)cc2)n1CC1CCCO1 (stereo not given),> 50 µM (inactive)
22,O=C(NCc1ccccc1)c1ccc2c(=O)n(-c3ccccc3)c(=O)[nH]c2c1,21.8 µM
23,O=C(NCc1nc2ccccc2[nH]1)c1cccc(S(=O)(=O)N2CCc3ccccc32)c1,> 50 µM (inactive)
24,CC(C)N1CC2CN(Cc3ccc(Cl)cc3)CCN2Cc2ccccc21 (stereo not given),> 50 µM (inactive)

row,Structure (SMILES),IC50
1,N#C/C(=C\c1ccc(OCc2cccc(C(=O)O)c2)cc1)c1ccc(F)cc1,29.5 µM
2,COc1ccc(C2SCC(=O)Nc3c2c(=O)[nH]n3C2CCCCCC2)cc1 (stereo not given),33.5 µM
3,O=C(NC1CCCCC1)c1cc2c(cn1)[nH]c1ccccc12,> 50 µM (inactive)
4,N#Cc1ccc(NC(=O)c2ccc(S(=O)(=O)N3CCCCC3)cc2)cc1,11.6 µM
5,CC1(C)CC(n2[nH]c(=O)c3c2NC(=O)CSC3c2ccc(OCc3ccccc3)cc2)CCO1 (stereo not given),21 µM
6,COc1ccc(-c2cc3nc([C@H](C)NC(=O)Cc4ccccc4C)nn3cn2)cc1,2.38 µM
7,CCc1ccc(NC(=O)Cc2nnc(-c3ccc4ncccc4c3)o2)cc1,35.5 µM
8,COc1ccc(CNC(=O)CCc2nnc3n(Cc4ccccc4Cl)c(=O)c4ccccc4n23)cc1,2.65 µM
9,CCc1nc2c(NC(=O)Nc3cccc(C(=O)OC)c3)cccn2n1,> 50 µM (inactive)
10,Cc1noc(-c2cc(=O)n(CC(=O)NCc3ccccc3F)c3ccccc23)n1,4.88 µM
11,O=C(c1ccco1)N1CCCC2(C1)Nc1cccnc1NC2=NC1CCCC1 (stereo not given),> 50 µM (inactive)
12,COc1ccc(-c2nc3n(n2)C(c2cccc(O)c2)C2=C(CCCC2=O)N3)cc1 (stereo not given),41.4 µM
13,CCOc1ccc(CC(=O)Nc2ccc(-c3cn4cccnc4n3)cc2)cc1,31.7 µM
14,Cc1c(OCC(=O)Nc2nc3ccccc3[nH]2)ccc2c3c(c(=O)oc12)CCC3,0.339 µM
15,Cc1ccc(C(=O)Nc2nc3n(n2)C(c2ccccc2)CC(=O)N3)cc1 (stereo not given),27.9 µM
16,CC(=O)N1CCOc2cc(S(=O)(=O)N3CCCC3c3cc(C)no3)ccc21 (stereo not given),> 50 µM (inactive)
17,Cc1ccc2c(c1)N(Cc1nc(-c3ccc(F)cc3)no1)C(=O)CO2,> 50 µM (inactive)
18,O=C(COC(=O)c1ccc(NS(=O)(=O)c2ccc3c(c2)OCCO3)cc1)NCc1ccc(Cl)cc1,> 50 µM (inactive)
19,COc1ccc(C(=O)CSc2nnc(-c3cc4cccc(OC)c4o3)n2C)cc1OC,> 50 µM (inactive)
20,CCCc1nc2sc3c(NCCCN4CCOCC4)ncnc3c2c2c1CCC2,> 50 µM (inactive)
21,CCOc1ccccc1-c1nc(-c2nnn(Cc3ccccc3)c2C)no1,> 50 µM (inactive)
22,COc1cc(O)c2c(O)c3c(cc2c1)CC(C)OC3=O (stereo not given),6.24 µM
23,O=C(CCc1ccc(S(=O)(=O)N2CCOCC2)cc1)Nc1ccc2c(c1)OCCO2,> 50 µM (inactive)
24,COc1ccc2[nH]cc(S(=O)(=O)c3ccc(C)c(F)c3)c(=O)c2c1,48 µM

row,Structure (SMILES),IC50
1,Cc1nc(C(=O)N[C@@H](C)C(=O)NCc2ccc3c(c2)OCO3)cc2c1[nH]c1ccccc12,27.2 µM
2,O=C(Nc1cc(F)ccc1F)c1ccn(COc2ccc(F)c(Cl)c2)n1,38.4 µM
3,CCCCCCCCCC(CCCCCCCCCC(=O)O)O[C@H]1O[C@@H](COC(C)=O)[C@H](O)[C@@H](O)[C@H]1OC(=O)CC(=O)O (stereo not given in full),22.8 µM
4,COc1cc(NC(=O)Cc2ccccc2)ccc1NC(=O)c1cc2ccccc2o1,9.82 µM
5,c1cnc(-c2n[nH]c(C3CCN(C4CCNC4)CC3)n2)cn1 (stereo not given),> 50 µM (inactive)
6,CCN(C(=O)c1cc2c(s1)-c1ccccc1OC2)c1ccccc1F,> 50 µM (inactive)
7,O=C(CNC(=O)c1cc2ccccc2[nH]1)Nc1ccc2c(c1)OCCO2,34 µM
8,Cc1nc(-c2noc3ccc(C(=O)Nc4cccnc4)cc23)cs1,42.5 µM
9,Cc1ccc(Cl)cc1NC(=O)COC(=O)c1ccc2ccccc2n1,> 50 µM (inactive)
10,Cc1nc(-c2cccc(NC(=O)c3ccccc3Cl)c2)no1,> 50 µM (inactive)
11,COc1ccc(C2C(C(=O)Nc3ccccc3OC)=C(C)Nc3nnnn32)cc1Br (stereo not given),36.3 µM
12,O=C1/C(=C/c2cn(-c3ccccc3)nc2-c2ccc3c(c2)OCCO3)Cc2ccccc21,> 50 µM (inactive)
13,COc1ccc(COc2ccc3c(C)c(CC(=O)N4CC[C@@]5(O)CCCC[C@H]5C4)c(=O)oc3c2)cc1,2.55 µM
14,O=C(COC(=O)Cn1cnc2ccccc21)Nc1ccc2c(c1)OCCO2,> 50 µM (inactive)
15,Cc1cc(NC(=O)COc2ccc3oc4ccccc4c3c2)no1,31.4 µM
16,COc1ccc(NC(=O)CNC(=O)c2ccc3nc(-n4cccc4)sc3c2)cc1,3.15 µM
17,COc1cc(OC)cc(-c2nc(-c3cn(-c4cccc(F)c4)nn3)no2)c1,0.13 µM
18,CCOc1ccc(CCNC(=O)c2ccc3c(c2)N(CC)C(=O)c2ccccc2S3)cc1OCC,> 50 µM (inactive)
19,N#Cc1ccccc1Cn1c(=O)n(CCCCC(=O)NCCc2ccccc2)c(=O)c2ccccc21,10 µM
20,N#C/C(=C\c1ccc(-c2cc(Cl)ccc2Cl)o1)c1nnc2n1CCCCC2,> 50 µM (inactive)
21,CC1=C(c2ccc(F)cc2)S(=O)(=O)NC1=NCC(=O)Nc1cccc(F)c1,34.2 µM
22,O=C(CSc1nnc(-c2ccncc2)n1Cc1ccccc1)c1ccc2[nH]c(O)cc2c1,4.12 µM
23,Cc1cc(C)c2nc3c(cc2c1)CN(Cc1ccco1)C(=O)O3,> 50 µM (inactive)
